{
  "source": "patent US10641771B2",
  "about": "“Protein target complex” (HQ Medical Netherlands B.V., priority 2012, dated 2020)",
  "molecules": {"B1": {"name": "Annexin V: binds phosphatidyl serine on the outside of the membrane of apoptotic and necrotic cells (protein, UniProt P08758 2-320, looked up)", "Annexin A5": "AQVLRGTVTDFPGFDERADAETLRKAMKGLGTDEESILTLLTSRSNAQRQEISAAFKTLFGRDLLDDLKSELTGKFEKLIVALMKPSRLYDAYELKHALKGAGTNEKVLTEIIASRTPEELRAIKQVYEEEYGSSLEDDVVGDTSGYYQRMLVVLLQANRDPDAGIDEAQVEQDAQALFQAGELKWGTDEEKFITIFGTRSVSHLRKVFDKYMTISGFQIEETIDRETSGNLEQLLLAVVKSIRSIPAYLAETLYYAMKGAGTDDHTLIRVMVSRSEIDLFNIRKEFRKNFATSLYSMIKGDTSGDYKKALLLLCGEDD", "modifications": "FITC label"}},
  "key": {"intracellular proteins": {"tested_on": "intracellular proteins", "assay": "Identification of intracellular proteins that bind HQ5 (lysate incubated with dye)", "assay_type": "binding", "details": "lysate incubated with HQ5 and CW800", "procedure": "FIG. 12 relates to identification of intracellular proteins that bind HQ5. In order to try to identify the protein to which the HQ-dyes bind Lysate is (after pre-treatment) incubated with HQ5 and CW800. Exact protocol and technique not specified. […] A specific HQ5-binding protein has a molecular weight of approx. 40 kD."}, "4T1-Luc cells": {"tested_on": "4T1-Luc cells", "assay": "Dry ice assay: binding to dead cells or uptake by living cells", "assay_type": "cell-based, mouse", "details": "dry-ice killed 4T1-Luc cells in the center of the wells, 15 min at 37° C.", "procedure": "4T1-Luc cells were seeded onto individual wells from a 12-well cell culture plate and allowed to grow to confluence in RPMI media supplemented with 10% fetal bovine serum. 4T1-luc2 mouse breast cancer cells were used as the adherence of these cells to the bottom of the culture well remains strong after dry-ice treatment. To initiate cryo-induced cell death, media was discarded and dry-ice was applied to the bottom center of each individual well for 15 sec. Subsequently, fresh medium with different concentrations of the first compound of the invention were added and cells were incubated at 37° C. for 15 min. After incubation, the media were discarded and the cells were washed twice with serum free medium and 0.5 ml fresh RPMI was added to each well. Cells were then visualized using a Licor Odyssey equipped with 700 and 800 nm diode laser. Luciferin ([…]) was also added to each well and fluorescence and bioluminescence images were acquired using an IVIS Spectrum (fluorescence: excitation filter: 710 nm, emission filter: 820 nm, exposure time: 90 s, bin: 8, f/stop: 2, field of view: 12.9 cm) (bioluminescence: open filter, exposure time: 30 s, bin: 8, f/stop: 1, field of view: 12.9 cm). Some culture wells were also stained for 15 min with Trypan Blue (0.2% in culture medium) to confirm cell death."}, "injured tissues": {"tested_on": "injured tissues", "details": "Prajapati et al., Mol Imaging 2009; cited from earlier work"}, "4T1 cells": {"tested_on": "4T1 cells", "assay": "Confocal microscopy of Gambogic acid treated 4T1 cells", "assay_type": "cell-based, mouse", "from_the_text": "Gambogic acid kills cells leading to membrane disruption. […] Annexin-V-FITC specifically binds to phosphatidyl serine (PS) expressed on the outside of the cell membrane of apoptotic and necrotic cells.\nAnnexin V, however, can next to late apoptotic and necrotic cells also stain cells in an early stage of apoptosis."}},
  "data": [
    {"molecule": "CC1(C)C(/C=C/C2=C(Oc3ccc(S(=O)(=O)O)cc3)C(=C/C=C3/N(CCCCS(=O)(=O)O)c4ccc(S(=O)(=O)[O-])cc4C3(C)C)/CCC2)=[N+](CCCCCC(=O)O)c2ccc(S(=O)(=O)O)cc21", "note": "[CW800]", "values": [
      {"measurement": "proteins bound, HQ5 compared with CW800", "setting": "intracellular proteins", "result": "share some but also have different proteins they bind with"},
      {"measurement": "binding to dead cells", "setting": "4T1-Luc cells", "result": "specifically and dose-dependently bind to dead cells"}
    ]},
    {"molecule": "CC1(C)C(=CC=C2CCCC(C=CC3=[N+](CCCCS(=O)(=O)[O-])c4ccc5ccccc5c4C3(C)C)=C2Cl)N(CCCCS(=O)(=O)[O-])c2ccc3ccccc3c21.[Na+]", "note": "[IR-820]", "values": [
      {"measurement": "blood pool behaviour", "setting": "injured tissues", "result": "is a blood pool agent that just simply leaks out of blood vessels after disruption of the vessels"}
    ]},
    {"molecule": "B1", "values": [
      {"measurement": "number of cells stained", "setting": "4T1 cells", "result": "stains a larger number of cells than both HQ5 and EtD"}
    ]}
  ]
}
